Test results as given in patent publication US8409600B2, “Methods for prevention and/or treatment of capsular contracture” (J&E Solutions, LLC, priority 2009, dated 2013).

Tested on: breast capsular contracture
Assay: Clinical cases: topical treatment of breast capsular contracture (Baker grade)
Assay type: in vivo, human
Conditions: Patient #1, Aleve and massage after first revision (bilateral Grade 3 capsular contracture)
Description: The methods of the present invention for prevention of capsular contracture comprise topical application of the composition using the following steps: • Wash and dry the affected area (that is, the skin surrounding the implant or the skin over the capsular contracture) prior to use. • Apply the composition daily (use sparingly) with vigorous massage to affected area. If necessary, exert compression or pressure when massaging to break up existing capsule. Enhanced absorption is obtained with application of the composition following a hot shower. Occlusive dressing (hydrogel), or tight clothing (sports bras), will also enhance the result. Continued daily use will yield optimal results. […] Optimal results are best maintained with daily continued application. One particularly useful embodiment of the invention involves the use of the topical compositions for the treatment/prevention of capsular contracture in breast surgery (e.g., breast implants). There are four grades of breast capsular contracture—Baker grades I through IV. The Baker grading is as follows: • Grade I—the breast is normally soft and looks natural • Grade II—the breast is a little firm but looks normal • Grade III—the breast is firm and looks abnormal • Grade IV—the breast is hard, painful, and looks abnormal. • of developed or is at risk of developing capsular contracture a topical composition. Clinical Cases Patient #1

COc1ccc2cc([C@H](C)C(=O)O)ccc2c1 [Aleve, naproxen sodium]
response of capsular contracture to treatment: without result
